According to patent US20250281474A1, “PHARMACEUTICAL COMPOSITION FOR TREATING COGNITIVE DECLINE OR FOR TREATING OVERWEIGHTNESS OR OBESITY” (University of the Ryukyus, priority 2021, published 2025):
Where two headings read alike, the source gives them in different places.

Assays:
[1] = Ca2+ indicator; cited from earlier work
[2] = tested on: NMDAR; test: Ca2+ imaging of hippocampal brain slices, NMDA+glycine application, ob/ob mice; conditions: ob/ob mice orally administered PER; leptin 100 nM
[3] = tested on: NMDAR; test: Ca2+ imaging of hippocampal brain slices, NMDA+glycine application (NMDA reaction), HFD-fed mice; type: cell-based, mouse; conditions: HFD mice orally administered PER; leptin 100 nM
[4] = tested on: NMDA receptor; test: Ca2+-dependent inactivation of the NMDA receptor, Ca2+ imaging of brain slices; type: cell-based, mouse; conditions: brain slices of mice fed HFD 2 weeks; 3 μM, 60 min; n=3
[5] = tested on: CP-AMPAR; test: Ca2+ imaging of hippocampal brain slices, AMPA+CTZ application, ob/ob mice; type: cell-based, mouse
[6] = tested on: AMPAR (CP-AMPAR); test: Ca2+ imaging of hippocampal brain slices, AMPA+CTZ application (CP-AMPA reaction), HFD-fed mice; type: cell-based
Description: First, the intracellular calcium concentration ([Ca^2+]i) was directly measured in an acute brain slice of the hippocampus having a perihippocampal region using a mouse obesity model associated with HFD feeding (composition of diet (7) shown in Table 1) for 12 weeks after weaning to track calcium signaling (FIG. 1A: supplementary data moving image 1) in the hippocampus. HFD-fed mice received […] containing 100 μM CTZ (cyclothiazide; […]) applied to EC (entorhinal cortex), CA1 (cornu ammonis 1), CA2, CA3, and DG (dentate gyrus). The F525 normalized before and after application was compared.

CC(=O)OCOC(=O)CN(CC(=O)OCOC(C)=O)c1ccc(C)cc1OCCOc1cc(-c2c3cc(Cl)c(=O)cc-3oc3cc(OCOC(C)=O)c(Cl)cc23)ccc1N(CC(=O)OCOC(C)=O)CC(=O)OCOC(C)=O [Fluo-3 AM]
Kd [1]: 400 nM

leptin: hormone that regulates energy expenditure
function of NMDAR in EC, CA1, CA2, CA3, DG [2]: significantly enhanced
function of NMDAR in EC, CA1, CA2, CA3, DG [3]: significantly enhanced

CC(=O)OCOC(=O)CN(CC(=O)OCOC(C)=O)c1ccccc1OCCOc1ccccc1N(CC(=O)OCOC(C)=O)CC(=O)OCOC(C)=O [BAPTA-AM]
inactivation of the NMDA receptor (reactivity to NMDA 50 μM and glycine 10 μM) [4]: released the inactivation of the NMDA receptor

NCCCNCCCCNCCCNC(=O)Cc1cccc2ccccc12 [NASPM, N-[3-[[4-[(3-aminopropyl)amino]butyl]amino]propyl]-1-naphthaleneacetamide]
inhibitory effect on CP-AMPAR in EC, CA1, CA2, CA3, DG [5]: significant inhibitory effect
increase in [Ca2+]i via pathological AMPAR [6]: disappeared

Cc1cn2c(n1)Cc1ccc(Cl)cc1C(c1ccc(N)cc1)=N2 [GYKI 47261]
inhibitory effect on CP-AMPAR in EC, CA1, CA2, CA3, DG ([5]; ob/ob mice slices, 100 μM, p<0.05 (FIG. 10-1A)): significant inhibitory effect
